Results taken from paper PMC8387997 (ACS Omega, 2021).
“Also recorded” adds a separate entry of the source.

Key:
PB1(2) = PB1(2) (Homo sapiens, UniProt Q86U86); test: bromoSCAN; format: binding
PB1(5) = PB1(5) (Homo sapiens, UniProt Q86U86); test: bromoSCAN; format: binding; details: for selectivity for PB1(5) over SMARCA2B: from bromoSCAN KD values
SMARCA2B = SMARCA2B (Homo sapiens, UniProt P51531); test: bromoSCAN; format: binding
BRD9 = BRD9 versus other bromodomains; cited from earlier work
[1] = tested on: panel of 32 bromodomains, including BET bromodomains; test: bromoMAX panel screen, Eurofins; format: binding; details: screened at 10 μM against 32 bromodomains

PB1(2), sequence (Q86U86 177-287 limits assumed): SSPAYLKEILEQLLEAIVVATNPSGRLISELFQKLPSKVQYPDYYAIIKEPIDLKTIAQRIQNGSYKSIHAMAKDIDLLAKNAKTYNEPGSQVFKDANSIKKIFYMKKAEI
PB1(5), sequence (Q86U86 653-763 limits assumed): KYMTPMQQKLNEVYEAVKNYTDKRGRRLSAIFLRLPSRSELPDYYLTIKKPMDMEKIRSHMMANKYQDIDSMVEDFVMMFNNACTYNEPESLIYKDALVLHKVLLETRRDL
SMARCA2B, sequence (P51531 1-1572 isoform P51531-2): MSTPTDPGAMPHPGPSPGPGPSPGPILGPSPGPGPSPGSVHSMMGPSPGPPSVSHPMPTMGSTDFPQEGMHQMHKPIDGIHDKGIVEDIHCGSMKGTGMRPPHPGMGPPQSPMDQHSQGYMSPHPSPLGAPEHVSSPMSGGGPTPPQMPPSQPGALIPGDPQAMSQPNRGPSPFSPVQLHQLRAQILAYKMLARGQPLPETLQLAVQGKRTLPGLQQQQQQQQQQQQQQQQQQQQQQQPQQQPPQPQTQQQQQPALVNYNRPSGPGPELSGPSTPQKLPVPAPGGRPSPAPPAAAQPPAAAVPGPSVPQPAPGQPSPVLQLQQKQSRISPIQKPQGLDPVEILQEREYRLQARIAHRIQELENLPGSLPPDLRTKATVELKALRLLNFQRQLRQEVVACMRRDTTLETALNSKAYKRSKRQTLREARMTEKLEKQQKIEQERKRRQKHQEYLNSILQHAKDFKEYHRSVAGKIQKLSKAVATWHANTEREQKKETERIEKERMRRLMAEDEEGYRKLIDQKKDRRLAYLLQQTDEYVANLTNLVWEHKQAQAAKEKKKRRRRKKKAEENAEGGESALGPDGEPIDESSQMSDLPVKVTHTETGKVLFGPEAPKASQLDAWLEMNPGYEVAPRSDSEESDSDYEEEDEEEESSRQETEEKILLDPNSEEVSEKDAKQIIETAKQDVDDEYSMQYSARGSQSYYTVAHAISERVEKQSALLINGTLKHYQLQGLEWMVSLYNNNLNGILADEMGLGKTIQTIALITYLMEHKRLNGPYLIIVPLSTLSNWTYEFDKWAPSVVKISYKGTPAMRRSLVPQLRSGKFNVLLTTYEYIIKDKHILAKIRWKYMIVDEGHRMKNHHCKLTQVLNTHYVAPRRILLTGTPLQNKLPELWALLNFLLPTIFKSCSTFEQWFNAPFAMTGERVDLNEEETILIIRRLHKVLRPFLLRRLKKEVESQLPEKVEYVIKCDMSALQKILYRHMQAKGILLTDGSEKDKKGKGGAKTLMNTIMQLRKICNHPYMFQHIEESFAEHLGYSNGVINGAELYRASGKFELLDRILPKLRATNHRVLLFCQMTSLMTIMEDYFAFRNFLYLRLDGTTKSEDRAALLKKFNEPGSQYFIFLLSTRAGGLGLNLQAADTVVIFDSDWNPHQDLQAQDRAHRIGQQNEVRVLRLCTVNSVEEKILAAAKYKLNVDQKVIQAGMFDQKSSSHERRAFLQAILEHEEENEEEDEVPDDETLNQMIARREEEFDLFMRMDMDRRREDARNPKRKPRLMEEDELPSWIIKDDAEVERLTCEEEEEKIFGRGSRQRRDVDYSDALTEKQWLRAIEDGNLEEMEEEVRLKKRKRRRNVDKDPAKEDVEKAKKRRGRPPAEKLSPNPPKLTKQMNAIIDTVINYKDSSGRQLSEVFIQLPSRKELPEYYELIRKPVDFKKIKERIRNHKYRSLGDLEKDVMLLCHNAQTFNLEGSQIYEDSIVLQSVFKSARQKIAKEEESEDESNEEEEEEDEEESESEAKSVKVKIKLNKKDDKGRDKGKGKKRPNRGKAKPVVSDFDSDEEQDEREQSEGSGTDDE

Kd (PB1(2)) [nM]	Kd (PB1(5)) [nM]	selectivity for PB1(5) over SMARCA2B (PB1(5)) [fold]	Kd (SMARCA2B) [nM]	selectivity for PB1(2) over SMARCA2B (PB1(2); from bromoSCAN KD values) [fold]	SMILES	selectivity over a panel of other bromodomains (BRD9)	binding profile in bromoMAX panel [1]
5400	1100	~24	26000	–	CCC(/C=C1\CCCn2c1nc(=O)c1c(Cl)cccc12)CC [Compound 21, (E)-7-Chloro-4-(2-ethylbutylidene)-1,2,3,4-tetrahydro-6H-pyrido[1,2-a]quinazolin-6-one]	–	–
–	–	–	–	–	CCn1cc(-c2cccc(C(F)(F)F)c2)c2sc(C(=N)NC3CCS(=O)(=O)CC3)cc2c1=O [I-BRD9]	more than 70 fold	–
110	61	~34	2100	~19	CCC(CC)C1CC12CCn1c2nc(=O)c2c(Cl)cccc21 (centres unmarked) [LM146, 6′-Chloro-2-(pentan-3-yl)-1′,2′-dihydro-5′H-spiro[cyclopropane-1,3′-pyrrolo[1,2-a]quinazolin]-5′-one]	–	does not interact with bromodomains outside of sub-family VIII; also recorded: only binds to bromodomains within the sub-family VIII; also recorded: no binding to any bromodomains outside the sub-family VIII
